pIC50: −log10 of the molar value.
Tested on: breast cancer cell line ZR-75-1
Assay: Inhibition of proliferation of breast cancer cell line ZR-75-1 (CellTiter-Glo)
Assay type: cell-based
Conditions: Homo sapiens, 240 h, proliferation of ZR-75-1 cells, 10 days of incubation, read-out: IC50 (KAT6A)
From the text: Test Example 1: Experiment for Determining Inhibitory Effects of Compounds on Proliferation of Breast Cancer Cell Line ZR-75-1
ATP is an indicator of the metabolism of living cells. The CellTiter-Glo® Luminescent Cell Viability Assay is a homogeneous assay method for determining the number of viable cells by quantifying ATP.
• 1) ZR-75-1 (Cell Bank of Chinese Academy of Sciences, TCHul26) • 2) RPMI-1640 medium (Gibco, 11875-093) • 3) Fetal Bovine Serum, New Zealand (Gibco,10091-148) • 4) Penicillin-streptomycin (10,000 U/mL) (Gibco, 15140-122) • 5) Trypsin-EDTA (0.25%), containing phenol red (Gibco, 25200-072) • 6) DPBS (Shanghai BasalMedia, B210KJ) • 7) Corning® 96-well Clear Flat Bottom Ultra-Low Attachment Microplate (Corning, Cat. No. 3474) • 8) 330 μL 96 Holes Deep Well Plate, transparents, 96 Round Holes, V-shaped Bottom, Low Retention (Stellar Scientific, DP33VR-9-NS) • 9) Corning® 96-well solid white flat-bottom polystyrene microplate (Corning, Cat. No. 3917) • 10) CellTiter-Glo® Luminescent Cell Viability Assay (Promega, G7573) • 11) Countstar® BioMed automatic cell counter • 12) Trypan blue solution, 0.4% (Gibco, Cat. No. 15250061) • 13) 37° C. constant-temperature incubator (Thermo, FORMA STERI-CYCLE i160 LK) • 14) Biosafety cabinet (Thermo, 1379)
• 1) The formula of the complete medium for ZR-75-1 was as follows: 500 mL RPMI-1640+10% FBS+1% penicillin-streptomycin. • 2) Thirty minutes before cell plating, the complete medium, serum, trypsin, and DPBS for use in ZR-75-1 cell culture were pre-warmed in a water bath at 37° C. • 3) The ZR-75-1 cells were taken out of the incubator, and the medium was removed by pipetting. The cells were rinsed once with 5 mL of DPBS, and then the DPBS was discarded. • 4) The cells in the T75 culture flask were digested with 1-3 mL of (0.25%) trypsin-EDTA. After the trypsin was added, the culture flask was incubated in an incubator at 37° C. for 2-5 min, and dispersion was confirmed by microscopic examination. Tapping or agitating the culture flask was avoided to prevent disturbing the cells, which might cause cell clumping. • 5) 9 mL of the complete medium was added to terminate the digestion, thus forming a cell suspension, which was then mixed well by pipetting. • 6) Cell suspension counting: 20 μL of the cell suspension was pipetted and diluted with 20 µL of the 0.4% trypan blue solution (Gibco, Cat. No. 15250061). The total cell count and the percentage of cell viability were determined using the Countstar® BioMed automatic cell counter. Only cells with a cell viability of no less than 95% were used for the experiment. • 7) The concentration of the cell suspension was adjusted to 2000 cells/well, and the cell suspension was added to a 96-well cell culture plate at 80 μL/well. Treatment of Cells with Compounds • 1) Twenty-four hours after cell plating, the cell plate was taken out. • 2) Each compound was prepared with a complete medium. The stock solution was a 10 mM solution in DMSO, which was first diluted with the medium to 100 μM, then diluted to 1 μM, and finally subjected to a 5-fold serial dilution across a total of 9 concentration gradients. • 3) 20 μL of the compound diluted with the medium was added to each well of the cell culture plate, which already contained 80 μL of the medium. The final concentration started at 200 nM, followed by a 5-fold serial dilution across a total of 9 concentration gradients. Two replicate wells were set for each compound, and each plate could be used to test 3 compounds, with the DMSO content controlled within 0.5%. • 4) The culture medium was replenished once every three days with a complete medium containing the same concentration of the test compound, with 20 μL/well added each time.
After 10 days of incubation with the compound, the cell culture plate was taken out, and the CellTiter-Glo® reagent was added at 50 μL/well. […]

Row | SMILES | pIC50
1 | COc1ccc2c(c1S(=O)(=O)Nc1noc3cc(Cn4cccn4)cc(OC)c13)OCCC21CCCC1 [Compound 26, N-(6-((1H-Pyrazol-1-yl)methyl)-4-methoxybenzo[d]isoxazol-3-yl)-7-methoxyspiro[chromane-4,1′-cyclopentane]-8-sulfonamide] | > 9.30
2 | COc1ccc2c(c1S(=O)(=O)Nc1noc3cc(Cn4cccn4)c(F)c(OC)c13)OCCC2(C)C [Compound 27, N-(6-((1H-Pyrazol-1-yl)methyl)-5-fluoro-4-methoxybenzo[d]isoxazol-3-yl)-7-methoxy-4,4-dimethylchromane-8-sulfonamide] | > 9.30
3 | COc1ccc2c(c1S(=O)(=O)Nc1noc3cc(Cn4cccn4)c(Cl)c(OC)c13)OCCC2(C)C [Compound 29, N-(6-((1H-Pyrazol-1-yl)methyl)-5-chloro-4-methoxybenzo[d]isoxazol-3-yl)-7-methoxy-4,4-dimethylchromane-8-sulfonamide] | 7.30 to 8.00
4 | COc1ccc2c(c1S(=O)(=O)Nc1noc3cc(Cn4cccn4)c(Cl)c(OC)c13)OCCO2 [Compound 30, N-(6-((1H-Pyrazol-1-yl)methyl)-5-chloro-4-methoxybenzo[d]isoxazol-3-yl)-6-methoxy-2,3-dihydrobenzo[b][1,4]dioxine-5-sulfonamide] | 7.30 to 8.00
5 | COc1ccc2c(c1S(=O)(=O)Nc1noc3cc(Cn4cccn4)c(F)c(Cl)c13)OCCC2(C)C [Compound 31, N-(6-((1H-Pyrazol-1-yl)methyl)-4-chloro-5-fluorobenzo[d]isoxazol-3-yl)-7-methoxy-4,4-dimethylchromane-8-sulfonamide] | 8.70 to 9.30
6 | COc1ccc2c(c1S(=O)(=O)Nc1noc3cc(Cn4cccn4)c(F)c(Cl)c13)OCCO2 [Compound 32, N-(6-((1H-Pyrazol-1-yl)methyl)-4-chloro-5-fluorobenzo[d]isoxazol-3-yl)-6-methoxy-2,3-dihydrobenzo[b][1,4]dioxine-5-sulfonamide] | 8.00 to 8.70
7 | COc1ccc2c(c1S(=O)(=O)Nc1noc3cc(Cn4cccn4)cc(Cl)c13)OCCC2(C)C [Compound 33, N-(6-((1H-Pyrazol-1-yl)methyl)-4-chlorobenzo[d]isoxazol-3-yl)-7-methoxy-4,4-dimethylchromane-8-sulfonamide] | 8.70 to 9.30
8 | COc1ccc2c(c1S(=O)(=O)Nc1noc3cc(Cn4cccn4)cc(Cl)c13)OCCO2 [Compound 34, N-(6-((1H-Pyrazol-1-yl)methyl)-4-chlorobenzo[d]isoxazol-3-yl)-6-methoxy-2,3-dihydrobenzo[b][1,4]dioxine-5-sulfonamide] | 8.00 to 8.70
9 | COc1ccc2c(c1S(=O)(=O)Nc1noc3cc(Cn4cccn4)cc(OC)c13)OCCC21CC1 [Compound 35, N-(6-((1H-Pyrazol-1-yl)methyl)-4-methoxybenzo[d]isoxazol-3-yl)-7-methoxyspiro[chromane-4,1′-cyclopropane]-8-sulfonamide] | > 9.30
10 | COc1ccc2c(c1S(=O)(=O)Nc1noc3cc(Cn4cccn4)cc(OC)c13)OCCC2O (centres unmarked) [Compound 36, N-(6-((1H-Pyrazol-1-yl)methyl)-4-methoxybenzo[d]isoxazol-3-yl)-4-hydroxy-7-methoxychromane-8-sulfonamide] | > 9.30
11 | COc1ccc2c(c1S(=O)(=O)Nc1noc3cc(Cn4cccn4)cc(OC)c13)OCCC2=O [Compound 37, N-(6-((1H-Pyrazol-1-yl)methyl)-4-methoxybenzo[d]isoxazol-3-yl)-7-methoxy-4-oxochromane-8-sulfonamide] | > 9.30
12 | COc1ccc2c(c1S(=O)(=O)Nc1noc3cc(Cn4cccn4)cc(OC)c13)OCCC2(C)O (centres unmarked) [Compound 38, N-(6-((1H-Pyrazol-1-yl)methyl)-4-methoxybenzo[d]isoxazol-3-yl)-4-hydroxy-7-methoxy-4-methylchromane-8-sulfonamide] | > 9.30
13 | COc1ccc2c(c1S(=O)(=O)Nc1noc3cc(Cn4cccn4)cc(OC)c13)OCCC21SCCS1 [Compound 39, N-(6-((1H-Pyrazol-1-yl)methyl)-4-methoxybenzo[d]isoxazol-3-yl)-7-methoxyspiro[chromane-4,2′-[1,3]dithiolane]-8-sulfonamide] | > 9.30
14 | COc1ccc2c(c1S(=O)(=O)Nc1noc3cc(Cn4cccn4)cc(OC)c13)OCCN2C [Compound 41, N-(6-((1H-Pyrazol-1-yl)methyl)-4-methoxybenzo[d]isoxazol-3-yl)-7-methoxy-4-methyl-3,4-dihydro-2H-benzo[b][1,4]oxazine-8-sulfonamide] | 8.70 to 9.30
15 | COc1ccc2c(c1S(=O)(=O)Nc1noc3cc(Cn4cccn4)c(F)c(OC)c13)OCCC21CC1 [Compound 43, N-(6-((1H-Pyrazol-1-yl)methyl)-5-fluoro-4-methoxybenzo[d]isoxazol-3-yl)-7-methoxyspiro[chromane-4,1′-cyclopropane]-8-sulfonamide] | > 9.30
16 | COc1ccc2c(c1S(=O)(=O)Nc1noc3cc(Cn4cccn4)c(F)c(OC)c13)OCCC21SCCS1 [Compound 44, N-(6-((1H-Pyrazol-1-yl)methyl)-5-fluoro-4-methoxybenzo[d]isoxazol-3-yl)-7-methoxyspiro[chromane-4,2′-[1,3]dithiolane]-8-sulfonamide] | > 9.30
17 | COc1ccc2c(c1S(=O)(=O)Nc1noc3cc(Cn4cccn4)cc(Cl)c13)OCCC2=O [Compound 45, N-(6-((1H-Pyrazol-1-yl)methyl)-4-chlorobenzo[d]isoxazol-3-yl)-7-methoxy-4-oxochromane-8-sulfonamide] | 8.00 to 8.70
18 | COc1ccc2c(c1S(=O)(=O)Nc1noc3cc(Cn4cccn4)cc(Cl)c13)OCCC21CC1 [Compound 46, N-(6-((1H-Pyrazol-1-yl)methyl)-4-chlorobenzo[d]isoxazol-3-yl)-7-methoxyspiro[chromane-4,1′-cyclopropane]-8-sulfonamide] | 8.00 to 8.70
19 | COc1ccc2c(c1S(=O)(=O)Nc1noc3cc(Cn4cccn4)cc(Cl)c13)OCCC21SCCS1 [Compound 47, N-(6-((1H-Pyrazol-1-yl)methyl)-4-chlorobenzo[d]isoxazol-3-yl)-7-methoxyspiro[chromane-4,2′-[1,3]dithiolane]-8-sulfonamide] | 8.70 to 9.30
20 | COc1ccc2c(c1S(=O)(=O)Nc1noc3cc(Cn4cccn4)c(F)c(Cl)c13)OCCC2=O [Compound 48, N-(6-((1H-Pyrazol-1-yl)methyl)-4-chloro-5-fluorobenzo[d]isoxazol-3-yl)-7-methoxy-4-oxochromane-8-sulfonamide] | 8.70 to 9.30
21 | COc1ccc2c(c1S(=O)(=O)Nc1noc3cc(Cn4cccn4)c(F)c(Cl)c13)OCCC21CC1 [Compound 49, N-(6-((1H-Pyrazol-1-yl)methyl)-4-chloro-5-fluorobenzo[d]isoxazol-3-yl)-7-methoxyspiro[chromane-4,1′-cyclopropane]-8-sulfonamide] | 8.00 to 8.70
22 | COc1ccc2c(c1S(=O)(=O)Nc1noc3cc(Cn4cccn4)c(Cl)c(OC)c13)OCCC21CC1 [Compound 52, N-(6-((1H-Pyrazol-1-yl)methyl)-5-chloro-4-methoxybenzo[d]isoxazol-3-yl)-7-methoxyspiro[chromane-4,1′-cyclopropane]-8-sulfonamide] | ≤ 7.30
23 | COc1cccc(OC)c1S(=O)(=O)Nc1nnc2cc(Cn3cccn3)cc(OC)n12 [Compound 58, N-(7-((1H-Pyrazol-1-yl)methyl)-5-methoxy-[1,2,4]triazolo[4,3-a]pyridin-3-yl)-2,6-dimethoxybenzenesulfonamide] | ≤ 7.30

From US20260174778A1, “SULFONAMIDE COMPOUND, AND PREPARATION METHOD THEREFOR AND USE THEREOF” (SHANGHAI HENLIUS BIOTECH, INC., priority 2023, published 2026)
